According to patent US20100111838A1, “BRAIN-LOCALIZING POLYPEPTIDES COMPRISING A MULTIVALENT BINDING MOIETY AND IMPROVED METABOLIC STABILITY” (Proteus Sciences Co., Ltd, priority 2007, published 2010):
Where a SMILES comes first, the peptide text is derived from it. The star is where a group is joined. 5FAM = O=C1OC2(c3ccc(O)cc3Oc3cc(O)ccc32)c2ccc(C(=O)*)cc21

Test: In vitro metabolism test of fluorescein-labeled peptides in liver extract solution (HPLC)
Format: in vitro ADME
Conditions: mouse liver extract solution, 37° C.
Method: To compare the degree of improved stability observed in [C]K004K, an experiment system that uses a fluorescent pigment as a tracer instead of an isotope labeling for in vitro evaluation using a mouse liver homogenate was produced.
Add two parts of Hanks' solution to one part of mouse liver, and homogenize ↓ Centrifuge and collect supernatant ↓ Add five parts of Hanks' solution (liver extract solution) ↓ Add 5 μL of peptide to 245 μL of liver extract solution ↓
↓ Take 50 μL of sample 0, 5, 30, 60, and 120 minutes after incubation ↓ Add 200 μL, of 70% ethanol (pre-cooled at −30° C.) and then vortex ↓ Add 500 μL of chloroform (pre-cooled at −30° C.) and then vigorously vortex ↓ Centrifuge and collect supernatant ↓ Add an equivalent amount of DMF and then vortex ↓ Centrifuge and collect supernatant ↓ HPLC analysis using Co-sense
[C](Flu)-C004C: A peptide cyclized by adding C to both ends of the 004 sequence and forming a disulfide bond between them was labeled with fluorescein at its N-terminus. [C](Flu)-K004C: A peptide cyclized by adding K to the N terminus and C to the C terminus of the 004 sequence and forming a peptide bond between the N- and C-termini was labeled with fluorescein at its N terminus. [C](Flu)-K004K: A peptide cyclized by adding K to both ends of the 004 sequence and forming a peptide bond between the N- and C-termini was labeled with fluorescein at its N terminus. […]

CC(C)C[C@@H]1NC(=O)[C@H](Cc2c[nH]cn2)NC(=O)[C@H](CCCNC(=N)N)NC(=O)[C@H](C(C)C)NC(=O)[C@H](C(C)C)NC(=O)[C@H](CCCCNC(=O)c2ccc3c(c2)C(=O)OC32c3ccc(O)cc3Oc3cc(O)ccc32)NC(=O)[C@H](CCCCN)NC(=O)[C@H](CCC(N)=O)NC(=O)[C@H](CCC(N)=O)NC1=O [[C](Flu)-K004K] (cyclo(K(5FAM)VVRHLQQK))
resistance to degradation in liver extract solution (comparison): strongest resistance to degradation
